According to US20020010158A1, “Cardioprotective phosphonates and malonates” (priority 2000, published 2002):

Assays:
Format in all cases: in vivo, rat
[1] = test system: coronary artery ligated rats (cardiac hypertrophy); experiment: Cardiac hypertrophy after coronary artery ligation; details: rats 21 days after coronary ligation, 10 mg/kg daily by gastric tube
Protocol: (§1) Myocardial infarction was produced in male Sprague-Dawley rats (300-400 g) by occlusion of the left coronary artery. The rats were housed in clear cages in a temperature (19-22° C.) and humidity (50-55% RH) controlled room on a 12 hour light-dark cycle. Food and water were supplied ad libitum. Rats were anaesthized with 1-5% isoflurane in 100% O2 (2 L/minute flow rate). The skin was incised along the left sternal border and the 4th rib was cut proximal to the sternum and a retractor was inserted. The pericardial sac was opened and the heart externalized. The left anterior descending coronary artery was ligated approximately 2 mm from its origin on the aorta using a 6-0 silk suture. The heart was then repositioned in the chest and the incision closed via purse-string sutures. Sham-operated rats underwent identical treatment except that the artery was not ligated. Mortality due to surgery was less than 1%. All animals were allowed to recover, receiving food and water ad libitum for 21 days. Hemodynamic and histological assessments were made.
(§2) Rats were divided at random into five groups: sham operated, coronary artery ligated (untreated), coronary artery ligated (pyridoxal-5′-phosphate (P5P) treatment), coronary artery ligated (compound VII treated) and coronary artery ligated (compound XI treated). Treatment with P5P, compound VII and compound XI began 1 hour after coronary occlusion (or sham operation), and continued for 21 days. P5P, compound VII or compound XI (10 mg/kg) were administered daily (9 AM) by gastric tube. This dosage was chosen based on previous experience with P5P.
Hypertrophy is a physiological condition of enlargement (increased mass) due to increased stress. Cardiac hypertrophy is assessed by calculating the heart to body mass ratio.

[2] = test system: coronary artery ligated rats (left ventricle hemodynamics); experiment: Hemodynamic changes after coronary artery ligation; details: rats 21 days after coronary ligation; 10 mg/kg daily by gastric tube; mean±SD
Protocol: as §1, with “Sham-operated rats underwent identical treatment except that the artery was not ligated. Mortality due to surgery was less than 1%. All animals were allowed to recover, receiving food and water ad libitum for 21 days. Hemodynamic and histological assessments were made.” left out
The animals prepared as described in Example 29 were anaesthetized with an injected cocktail of ketamine hydrochloirde (60 mg/kg) and xylazine (10 mg/kg). […] The catheter was secured with a silk ligature around the artery, and various hemodynamic parameters including left ventricular systolic pressure (LVSP), left ventricular end diastolic pressure (LVEDP), rate of contraction (+dP/dt), and rate of relaxation (−dP/dt), were recorded and calculated with Acknowledge 3.1 software (Biopac Systems Inc.). The animals were allowed 5-10 minutes to stabilize, after which parameters were measured as averages over three readings.

[3] = test system: coronary artery ligated rats (myocardial infarction); experiment: Coronary artery ligation, mortality; details: male Sprague-Dawley rats, 10 mg/kg daily by gastric tube from 1 hour after occlusion
Protocol: as §1, with “made. […]” for “made.”
as §2
Mortality in all groups occurred only within the first 24 h after coronary ligation. While in the untreated group 50% of the rats died, the mortality rate dropped to 17-25% in the treated groups (Table I).

Row | Compound | Cardiac Hypertophy, Heart Weight/Body Weight [1] | LVSP (left ventricular systolic pressure) [2] | Mortality (%) [3] [%] | Total dead Rats [3] | Dead Rats 12 hr [3] | Dead Rats 24 hr [3] | Dead Rats 36 hr [3] | Dead Rats 48 hr [3] | Dead Rats 3 days [3]
1 | Cc1ncc(C(F)P(=O)(O)O)c(CO)c1O (stereo not drawn) [MC-5422, (3-hydroxy-4-hydroxymethyl-2-methyl-5-pyridyl)fluoromethyl phosphonic Acid] | 0.0032 ± 0.0002 |  |  |  |  |  |  |  | 
2 | Cc1ncc(C(O)P(=O)(O)O)c(CO)c1O (stereo not drawn) [MC-5723, (3-hydroxy-4-hydroxymethyl-2-methyl-5-pyridyl)hydroxymethyl phosphonic Acid] | 0.0031 ± 0.0004 |  |  |  |  |  |  |  | 
3 | Cc1ncc(COP(=O)(O)O)c(C=O)c1O [P5P, pyridoxal-5′-phosphate, reference compound] |  | 120.0 ± 10.6 | 17 | 2 | 1 | 1 | 0 | 0 | 0
4 | Cc1ncc(C(O)P(=O)(O)O)c(CO)c1O (stereo not drawn) [compound VII, (3-hydroxy-4-hydroxymethyl-2-methyl-5-pyridyl)hydroxymethyl phosphonic Acid] | significant decrease in cardiac hypertrophy |  | 21 | 3 | 2 | 1 | 0 | 0 | 0
5 | Cc1ncc(C(F)P(=O)(O)O)c(CO)c1O (stereo not drawn) [compound XI, (3-hydroxy-4-hydroxymethyl-2-methyl-5-pyridyl)fluoromethyl phosphonic Acid] | significant decrease in cardiac hypertrophy | 115.0 ± 12.1 | 25 | 3 | 3 | 0 | 0 | 0 | 0
